pEC50: −log10 of the molar value. Converted amounts (≈) assume the structure as drawn. “Also recorded” adds a separate entry of the source.
Columns and labels:
KLF15 promoter [1] = assay: KLF15 reporter human podocyte assay (HTS, dose-response, primary screening); format: cell-based; settings: for KLF15 reporter activity, primary screening assay: 1 μM, 24 hr, vs DMSO; for maximal KLF15 reporter activity: dose escalation, at similar concentrations to DEX; for pEC50: dose-response curve, human podocytes, luciferase/renilla
Method: A stable reporter assay directed at KLF15 promoter region (4.3 kb region) was generated in human podocytes, a fragment of human KLF15 promoter upstream of the start codon, by amplifying and subcloning it into the firefly luciferase reporter plasmid (co-transfection with renilla to serve as internal controls). KLF15 promoter activity is measured as a ratio of luciferase to renilla activity. Using this reporter cell line, a cell-based HTS assay was developed using recently reported cell-seeding methodology specific to cultured podocytes (16).

human podocytes [2] = assay: Toxicity to human podocytes in primary screening assay (Renilla, cell viability); format: cell-based; settings: 1 μM, 24 hr
Method: (§1) After the synthesis of these novel analogues, a primary screening assay was conducted.

LPS-treated mice = assay: LPS-induced albuminuria murine model; format: in vivo; settings: C57BL/6 mice, LPS 10 μg/g, subcutaneous minipump 3.5 μg/day for 48 hours, vs DMSO
Method: Referring to FIG. 10D, C57BL/6 mice were treated with lipopolysaccharide (LPS) at dose of 10 μg/g in two divided doses 24 hours apart intraperitoneally to induce podocyte injury and albuminuria.

KLF15 reporter = KLF15 reporter activity in LPS-treated human podocytes (podocyte stress model); format: cell-based
Method: (§2) FIG. 10A-D show representative data illustrating the dose-response curve and EC50 (FIG. 10A), KLF15 reporter activity (FIG. 10B), and Renilla activity (cell viability) (FIG. 10C) in LPS-treated HP, and the therapeutic efficacy in abrogating albuminuria (biomarker of kidney disease) in LPS-treated mice (FIG. 10D).
as §1

human podocytes [3] = assay: Podocyte survival (Renilla, cell viability) after LPS treatment; format: cell-based; settings: LPS-treated human podocytes
Method: as §2, §1

[4] = Equilibrium solubility in aqueous buffers; format: physicochemical
Method: The pH 2.0 buffer was prepared by combining 50 mL of 0.2 M KCl with 150 mL of H2O, and then adjusting to pH 2.0 with 10 N HCl. […] The pH 7.4 buffer was prepared by combining 50 mL of 0.2 M KH2PO4 with 150 mL of H2O, and then adjusting to pH 7.4 with 10 N NaOH. At least 0.3 mg of powder for each lead compound was combined with 1 mL of each buffer to make a ≥0.3 mg/mL mixture. These samples were shaken on a Thermomixer® overnight at room temperature. The samples were then centrifuged for 10 minutes at 14,000 rpm. The supernatant was sampled and diluted in duplicate 10-, 100-, 1,000-, and 10,000-fold into a mixture of 1:1 buffer:acetonitrile (ACN) prior to analysis. […] Standard concentrations ranged from 1.0 μM to 0.3 nM.

[5] = Stability in pH 7.4 phosphate buffer; format: physicochemical; settings: 37° C., 1 μM
Method: Studies were carried out in pH 7.4 phosphate buffer. The buffer was prepared by combining 50 mL of 0.2 M KH2PO4 with 150 mL of H2O, and then adjusting to pH 7.4 with 10 N NaOH. The buffer was adjusted to pH 7.4 prior to initiating the experiments. […] Aliquots of the DMSO solutions were dosed into 0.5 mL of matrix, which had been pre-warmed to 37° C., at a final lead compound concentration of 1 μM. Individual tubes were dosed for each timepoint. The vials were kept in a benchtop Thermomixer for the duration of the experiment. At each time point (0, 30, 60, and 120 minutes), an equal volume of acetonitrile was added to the appropriate tubes. Samples were stored at 4° C. until the end of the experiment. After the final time point was sampled, the plate was mixed and then centrifuged at 3,000 rpm for 10 minutes. Aliquots of the supernatant were removed, diluted 1:1 into distilled water, and analyzed by LC-MS/MS.

human liver microsomes = assay: Stability in human liver microsomes
Method: Mixed-gender human liver microsomes (Lot #1010420) were purchased from XenoTech. The reaction mixture, minus NADPH, was prepared as described below. […] The control compound, testosterone, was run simultaneously with the lead compounds in a separate reaction. The reaction mixture (without cofactor) was equilibrated in a shaking water bath at 37° C. for 3 minutes. The reaction was initiated by the addition of the cofactor, and the mixture was incubated in a shaking water bath at 37° C. Aliquots (100 μL) were withdrawn at 0, 10, 20, 30, and 60 minutes. Each lead compound and testosterone samples were immediately combined with 400 μL of ice-cold 50/50 acetonitrile (ACN)/H2O containing 0.1% formic acid and internal standard to terminate the reaction. The samples were then mixed and centrifuged to precipitate proteins. All samples were assayed by LC-MS/MS using electrospray ionization. The peak area response ratio (PARR) to internal standard was compared to the PARR at time 0 to determine the percent remaining at each time point. Half-lives and clearance were calculated using GraphPad software, fitting to a single-phase exponential decay equation.

[6] = tested on: Caco-2 cells (clone C2BBe1); assay: Caco-2 permeability; format: in vitro ADME; settings: for Papp AVG / Papp R1 / Recovery: 5 μM, 120 minutes; for Efflux Ratio / Significant Efflux: Caco-2; for Absorption Potential Classification: Caco-2, from Papp (A-to-B)
Method: Caco-2 cells (clone C2BBe1) were obtained from American Type Culture Collection (Manassas, VA). Cell monolayers were grown to confluence on collagen-coated, microporous membranes in 12-well assay plates. Details of the plates and their certification are shown below. The permeability assay buffer was Hanks' balanced salt solution containing 10 mM HEPES and 15 mM glucose at a pH of 7.4. The buffer in the receiver chamber also contained 1% bovine serum albumin. The dosing solution concentration was 5 μM of lead compound in the assay buffer. Cell monolayers were dosed on the apical side (A-to-B) or basolateral side (B-to-A) and incubated at 37° C. with 5% CO2 in a humidified incubator. Samples were taken from the donor and receiver chambers at 120 minutes. Each determination was performed in duplicate. The flux of lucifer yellow was also measured post-experimentally for each monolayer to ensure no damage was inflicted to the cell monolayers during the flux period. […] The apparent permeability (Papp) and percent recovery were calculated and provided.

KLF15 promoter [7] = assay: KLF15 promoter activity in human podocytes, KLF15 agonist combined with dexamethasone; format: cell-based; settings: for KLF15 promoter activity, single agent: alone (DEX 1 μM), vs DMSO-treated human podocytes; for KLF15 promoter activity, combination with DEX: vs DEX 1 μM
[8] = pH 2, room temperature overnight
[9] = pH 4, room temperature overnight
[10] = pH 7.4, room temperature overnight
[11] = human liver microsomes, 1 μM, 37° C.
[12] = human liver microsomes, Clint = k/P

Row | Compound | KLF15 reporter activity, primary screening assay (KLF15 promoter [1]) | maximal KLF15 reporter activity (KLF15 promoter [1]) | toxicity to human podocytes (human podocytes [2]) | albuminuria (LPS-treated mice) | KLF15 reporter activity after LPS treatment (KLF15 reporter) | podocyte survival after LPS treatment (human podocytes [3]) | Solubility AVG [4, 8] [µM] | Solubility R1 [4, 8] [µM] | Solubility AVG [4, 9] [µM] | Solubility R1 [4, 9] [µM] | Solubility AVG [4, 10] [µM] | Solubility R1 [4, 10] [µM] | Percent Remaining 0 min [5] | Percent Remaining 30 min [5] | Percent Remaining 60 min [5] | Percent Remaining 120 min [5] | Papp AVG ([6]; A-to-B) | Papp R1 ([6]; A-to-B) | Recovery ([6]; A-to-B) [%] | Papp AVG ([6]; B-to-A) | other results
1 | CSc1ccc(NC(=O)Nc2ccc(C)nc2)cc1 [BT503] | significantly induced KLF15 reporter activity | higher maximal KLF15 reporter activity | no observed toxicity | significantly reduced albuminuria | improved KLF15 reporter activity | improved; also recorded: improve podocyte survival | 343 (≈ 93.8 µg/mL) | 332 (≈ 90.8 µg/mL) | 17.3 (≈ 4.73 µg/mL) | 17.4 (≈ 4.76 µg/mL) | 34.5 (≈ 9.43 µg/mL) | 31.6 (≈ 8.64 µg/mL) | 100 | 90.6 | 87.6 | 80.5 | 10.7 10^−6 cm/s | 13.1 10^−6 cm/s | 59.7 | 9.7 10^−6 cm/s | pEC50 (KLF15 promoter [1]): ~8.15; Half-Life (human liver microsomes; [11]): 13 min; Percent Remaining 0 min (human liver microsomes; [11]): 100; Percent Remaining 10 min (human liver microsomes; [11]): 60.1; Percent Remaining 20 min (human liver microsomes; [11]): 35.3; Percent Remaining 30 min (human liver microsomes; [11]): 18.5; Percent Remaining 60 min (human liver microsomes; [11]): 3.3; CLint (intrinsic clearance) (human liver microsomes; [12]): 0.107 mL/min/mg protein; Papp R1 ([6]; B-to-A): 9.06 10^−6 cm/s; Recovery ([6]; B-to-A): 69%; Efflux Ratio [6]: 0.909; Significant Efflux [6]: No (Significant Efflux: ER ≥ 2.0 and Papp (B-to-A) ≥ 1.0 × 10^−6 cm/s); Absorption Potential Classification [6]: High (Papp (A-to-B) ≥ 1.0 × 10^−6 cm/s: High); KLF15 promoter activity, single agent (KLF15 promoter [7]): significantly induced KLF15 promoter activity; KLF15 promoter activity, combination with DEX (KLF15 promoter [7]; compound 10 nM + DEX 0.5 μM): synergistic effect; KLF15 promoter activity, combination with DEX (KLF15 promoter [7]; compound 100 nM + DEX 0.5 μM): synergistic effect; KLF15 promoter activity, combination with DEX (KLF15 promoter [7]; compound 0.5 μM + DEX 0.5 μM): synergistic effect
2 | CSc1ccc(NC(=O)c2ccc(O)cc2)cc1 [BT501] | significantly induced KLF15 reporter activity | higher maximal KLF15 reporter activity | no observed toxicity | significantly reduced albuminuria | – | improve podocyte survival | 97.7 (≈ 25.3 µg/mL) | 99.7 (≈ 25.9 µg/mL) | 153 (≈ 39.7 µg/mL) | 157 (≈ 40.7 µg/mL) | 269 (≈ 69.8 µg/mL) | 279 (≈ 72.4 µg/mL) | 100 | 88.4 | 92.1 | 87.7 | 35.5 10^−6 cm/s | 32.5 10^−6 cm/s | 66.7 | 35 10^−6 cm/s | CLint (intrinsic clearance) (human liver microsomes; human, microsomes): 0.0387 mL/min/mg protein; Half-Life (human liver microsomes; human, microsomes): 35.8 min; Papp R1 ([6]; B-to-A): 32.5 10^−6 cm/s; Recovery ([6]; B-to-A): 81.7%; Efflux Ratio [6]: 0.987; Significant Efflux [6]: No (Significant Efflux: ER ≥ 2.0 and Papp (B-to-A) ≥ 1.0 × 10^−6 cm/s); Absorption Potential Classification [6]: High (Papp (A-to-B) ≥ 1.0 × 10^−6 cm/s: High); KLF15 promoter activity, single agent (KLF15 promoter [7]): significantly induced KLF15 promoter activity; KLF15 promoter activity, combination with DEX (KLF15 promoter [7]; compound 0.5 μM + DEX 0.5 μM): synergistic effect
3 | CSc1ccc(NC(=O)Nc2ccc(C#N)cn2)cc1 [BT502] | significantly induced KLF15 reporter activity | higher maximal KLF15 reporter activity | no observed toxicity | significantly reduced albuminuria | improved KLF15 reporter activity | improved | 22.2 (≈ 6.31 µg/mL) | 21.8 (≈ 6.2 µg/mL) | 10.4 (≈ 2.96 µg/mL) | 10.4 (≈ 2.96 µg/mL) | 28.1 (≈ 7.99 µg/mL) | 28.4 (≈ 8.08 µg/mL) | 100 | 99.7 | 87 | 88.7 | 15.2 10^−6 cm/s | 14.6 10^−6 cm/s | 63.1 | 7.34 10^−6 cm/s | Half-Life (human liver microsomes; [11]): 17 min; Percent Remaining 0 min (human liver microsomes; [11]): 100; Percent Remaining 10 min (human liver microsomes; [11]): 63.9; Percent Remaining 20 min (human liver microsomes; [11]): 45.3; Percent Remaining 30 min (human liver microsomes; [11]): 29.6; Percent Remaining 60 min (human liver microsomes; [11]): 8.53; CLint (intrinsic clearance) (human liver microsomes; [12]): 0.0813 mL/min/mg protein; Papp R1 ([6]; B-to-A): 6.35 10^−6 cm/s; Recovery ([6]; B-to-A): 67.1%; Efflux Ratio [6]: 0.481; Significant Efflux [6]: No (Significant Efflux: ER ≥ 2.0 and Papp (B-to-A) ≥ 1.0 × 10^−6 cm/s); Absorption Potential Classification [6]: High (Papp (A-to-B) ≥ 1.0 × 10^−6 cm/s: High); KLF15 promoter activity, single agent (KLF15 promoter [7]): significantly induced KLF15 promoter activity; KLF15 promoter activity, combination with DEX (KLF15 promoter [7]; compound 100 nM + DEX 0.5 μM): synergistic effect; KLF15 promoter activity, combination with DEX (KLF15 promoter [7]; compound 0.5 μM + DEX 0.5 μM): synergistic effect
4 | C[C@@H]1C[C@H]2[C@@H]3CCC4=CC(=O)C=C[C@]4(C)[C@@]3(F)[C@@H](O)C[C@]2(C)[C@@]1(O)C(=O)CO [DEX, dexamethasone, reference compound] | – | – | – | – | – | – | – | – | – | – | – | – | – | – | – | – | – | – | – | – | pEC50 (KLF15 promoter [1]): 5.27
5 | CC1(C)OB(c2ccc(C(N)=NO)cc2)OC1(C)C [BT506] | – | – | Toxicity | – | – | – | – | – | – | – | – | – | – | – | – | – | – | – | – | – | –
6 | CSc1ccc(-c2nc(-c3ccc(O)cc3)no2)cc1 [BT514] | significantly induced KLF15 reporter activity | – | no observed toxicity | – | improved KLF15 reporter activity | improved; also recorded: improve podocyte survival | – | – | – | – | – | – | – | – | – | – | – | – | – | – | –
7 | CSc1ccc(NC(=O)Nc2ccc(B3OC(C)(C)C(C)(C)O3)cc2)cc1 [BT412] | significantly induced KLF15 reporter activity | higher maximal KLF15 reporter activity | no observed toxicity | – | improved KLF15 reporter activity | improved; also recorded: improve podocyte survival | – | – | – | – | – | – | – | – | – | – | – | – | – | – | –
